Data published in US6440899B1, “Cyclohexenonedioxothiochromanoyl derivatives” (BASF Aktiengesellschaft, priority 1998, dated 2002).

Tests used:
Assay in all cases: greenhouse post-emergence herbicidal test
Format in all cases: in vivo
Details in all cases: applied post-emergence, rates of application of 0.5 and 0.25 kg/ha, respectively
[1] = test system: Echinochloa crus-galli
From the text: (§1) The seeds of the test plants were sown separately for each species. For the post-emergence treatment, the test plants were first grown to a height of 3 to 15 cm, depending on the plant habit, and only then treated with the active compounds which had been suspended or emulsified in water. For this purpose, the test plants were either sown directly and grown in the same containers, or they were first grown separately as seedlings and transplanted into the test containers a few days prior to treatment. The rate of application for the post-emergence treatment was 0.5 or 0.25 kg/ha of a.s. (active substance). Depending on the species, the plants were kept at 10-25° C. or 20-35° C. The test period extended over 2 to 4 weeks. During this time, the plants were tended, and their response to the individual treatments was evaluated. Evaluation was carried out using a scale from 0 to 100. 100 means no emergence of the plants, or complete destruction of at least the aerial parts, and 0 means no damage, or normal course of growth. The plants used in the greenhouse experiments belonged to the following species: [table]

[2] = test system: Galium aparine
From the text: as §1

[3] = test system: Sinapis alba
From the text: as §1

[4] = test system: Solanum nigrum
From the text: as §1

[5] = test system: Setaria faberi
From the text: as §1

[6] = test system: Chenopodium album
From the text: as §1

[7] = test system: Setaria viridis
From the text: as §1

Measured: herbicidal activity

Cc1c(C(=O)C2=C(Cl)C(C)(C)C(=O)C(C)(C)C2=O)ccc2c1S(=O)(=O)CCS2(=O)=O [Compound 4.1, 1-Chloro-2-[(8-methyl-2,3-dihydro-1,1,4,4-tetraoxobenz[1,4]dithiyn-7-yl)carbonyl]-4,4,6,6-tetramethyl-1-cyclohexene-3,5-dione]
very good activity: all assays above
